Results taken from PubChem BioAssay (NCI).
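The compound was tested at five concentrations on cells cultured in 96-well plates, with a 48-hour exposure period. TGI is the concentration that stops growth completely.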

How the values were obtained:
Test in all cases: DTP human tumour cell line panel, 48 h
KM20L2 colon = system: KM20L2 colon
HT29 colon = system: HT29 colon
CCRF-CEM leukemia = system: CCRF-CEM leukemia
UACC-62 melanoma = system: UACC-62 melanoma
OVCAR-3 ovarian = system: OVCAR-3 ovarian
RXF 393 renal = system: RXF 393 renal
OVCAR-4 ovarian = system: OVCAR-4 ovarian
OVCAR-8 ovarian = system: OVCAR-8 ovarian
SNB-78 CNS = system: SNB-78 CNS
MALME-3M melanoma = system: MALME-3M melanoma
SF-295 CNS = system: SF-295 CNS
TK-10 renal = system: TK-10 renal
LOX IMVI melanoma = system: LOX IMVI melanoma
SK-OV-3 ovarian = system: SK-OV-3 ovarian
MOLT-4 leukemia = system: MOLT-4 leukemia
K-562 leukemia = system: K-562 leukemia
NCI-H23 lung = system: NCI-H23 lung
CAKI-1 renal = system: CAKI-1 renal
A549 NSCLC = system: A549 NSCLC
ACHN renal = system: ACHN renal
HOP-92 NSCLC = system: HOP-92 NSCLC
M14 melanoma = system: M14 melanoma
SK-MEL-28 melanoma = system: SK-MEL-28 melanoma
NCI-H460 lung = system: NCI-H460 lung
XF 498 CNS = system: XF 498 CNS
DMS 114 small cell lung = system: DMS 114 small cell lung
SNB-75 CNS = system: SNB-75 CNS
EKVX NSCLC = system: EKVX NSCLC
HOP-18 NSCLC = system: HOP-18 NSCLC
786-0 renal = system: 786-0 renal
RPMI-8226 leukemia = system: RPMI-8226 leukemia
UACC-257 melanoma = system: UACC-257 melanoma
SK-MEL-5 melanoma = system: SK-MEL-5 melanoma
SNB-19 CNS = system: SNB-19 CNS
HCT-15 colon = system: HCT-15 colon
HOP-62 NSCLC = system: HOP-62 NSCLC
IGROV1 ovarian = system: IGROV1 ovarian
DLD-1 colon = system: DLD-1 colon
DMS 273 small cell lung = system: DMS 273 small cell lung
U251 CNS = system: U251 CNS
SK-MEL-2 melanoma = system: SK-MEL-2 melanoma
HCT-116 colon = system: HCT-116 colon
COLO 205 colon = system: COLO 205 colon
SN12C renal = system: SN12C renal
UO-31 renal = system: UO-31 renal
SW-620 colon = system: SW-620 colon
M19-MEL melanoma = system: M19-MEL melanoma
HL-60(TB) leukemia = system: HL-60(TB) leukemia
SF-268 CNS = system: SF-268 CNS
NCI-H226 lung = system: NCI-H226 lung
A498 renal = system: A498 renal
HCC-2998 colon = system: HCC-2998 colon
KM12 colon = system: KM12 colon
OVCAR-5 ovarian = system: OVCAR-5 ovarian
LXFL 529 NSCLC = system: LXFL 529 NSCLC
SR leukemia = system: SR leukemia
NCI-H522 lung = system: NCI-H522 lung

## CC(=O)C1C(c2ccc(N(C)C)cc2)c2cc3c(cc2OC1(C)O)OCO3 (configuration not stated)
KM20L2 colon
  TGI: 26.6 µM
HT29 colon
  TGI: 58.5 µM
CCRF-CEM leukemia
  TGI: > 100 µM
UACC-62 melanoma
  TGI: > 100 µM
OVCAR-3 ovarian
  TGI: > 100 µM
RXF 393 renal
  TGI: > 100 µM
OVCAR-4 ovarian
  TGI: > 100 µM
OVCAR-8 ovarian
  TGI: > 100 µM
SNB-78 CNS
  TGI: > 100 µM
MALME-3M melanoma
  TGI: > 100 µM
SF-295 CNS
  TGI: 71.2 µM
TK-10 renal
  TGI: > 100 µM
LOX IMVI melanoma
  TGI: > 100 µM
SK-OV-3 ovarian
  TGI: > 100 µM
MOLT-4 leukemia
  TGI: > 100 µM
K-562 leukemia
  TGI: 63.5 µM
NCI-H23 lung
  TGI: > 100 µM
CAKI-1 renal
  TGI: 87.8 µM
A549 NSCLC
  TGI: > 100 µM
ACHN renal
  TGI: > 100 µM
HOP-92 NSCLC
  TGI: 55.4 µM
M14 melanoma
  TGI: > 100 µM
SK-MEL-28 melanoma
  TGI: > 100 µM
NCI-H460 lung
  TGI: > 100 µM
XF 498 CNS
  TGI: > 100 µM
DMS 114 small cell lung
  TGI: 93.3 µM
SNB-75 CNS
  TGI: 68.2 µM
EKVX NSCLC
  TGI: > 100 µM
HOP-18 NSCLC
  TGI: > 100 µM
786-0 renal
  TGI: > 100 µM
RPMI-8226 leukemia
  TGI: 83.2 µM
UACC-257 melanoma
  TGI: > 100 µM
SK-MEL-5 melanoma
  TGI: 93 µM
SNB-19 CNS
  TGI: > 100 µM
HCT-15 colon
  TGI: > 100 µM
HOP-62 NSCLC
  TGI: > 100 µM
IGROV1 ovarian
  TGI: > 100 µM
DLD-1 colon
  TGI: > 100 µM
DMS 273 small cell lung
  TGI: > 100 µM
U251 CNS
  TGI: > 100 µM
SK-MEL-2 melanoma
  TGI: > 100 µM
HCT-116 colon
  TGI: > 100 µM
COLO 205 colon
  TGI: > 100 µM
SN12C renal
  TGI: > 100 µM
UO-31 renal
  TGI: > 100 µM
SW-620 colon
  TGI: > 100 µM
M19-MEL melanoma
  TGI: > 100 µM
HL-60(TB) leukemia
  TGI: 58.2 µM

## CN1C(=O)C2C3C=C4c5ccccc5N(c5ccccc5)C4(C2C1=O)[C@H]1C(=O)N(C)C(=O)[C@@H]31 (some centres not stated)
SF-268 CNS
  TGI: > 100 µM
KM20L2 colon
  TGI: > 100 µM
HT29 colon
  TGI: > 100 µM
CCRF-CEM leukemia
  TGI: > 100 µM
UACC-62 melanoma
  TGI: > 100 µM
OVCAR-3 ovarian
  TGI: > 100 µM
NCI-H226 lung
  TGI: > 100 µM
OVCAR-4 ovarian
  TGI: > 100 µM
OVCAR-8 ovarian
  TGI: > 100 µM
A498 renal
  TGI: > 100 µM
MALME-3M melanoma
  TGI: > 100 µM
SF-295 CNS
  TGI: > 100 µM
TK-10 renal
  TGI: > 100 µM
HCC-2998 colon
  TGI: > 100 µM
KM12 colon
  TGI: > 100 µM
LOX IMVI melanoma
  TGI: > 100 µM
SK-OV-3 ovarian
  TGI: > 100 µM
MOLT-4 leukemia
  TGI: > 100 µM
K-562 leukemia
  TGI: > 100 µM
NCI-H23 lung
  TGI: > 100 µM
OVCAR-5 ovarian
  TGI: > 100 µM
A549 NSCLC
  TGI: > 100 µM
ACHN renal
  TGI: > 100 µM
LXFL 529 NSCLC
  TGI: > 100 µM
HOP-92 NSCLC
  TGI: > 100 µM
SR leukemia
  TGI: > 100 µM
M14 melanoma
  TGI: > 100 µM
SK-MEL-28 melanoma
  TGI: > 100 µM
NCI-H460 lung
  TGI: > 100 µM
XF 498 CNS
  TGI: > 100 µM
DMS 114 small cell lung
  TGI: > 100 µM
SNB-75 CNS
  TGI: > 100 µM
EKVX NSCLC
  TGI: > 100 µM
786-0 renal
  TGI: > 100 µM
RPMI-8226 leukemia
  TGI: > 100 µM
UACC-257 melanoma
  TGI: > 100 µM
SNB-19 CNS
  TGI: > 100 µM
NCI-H522 lung
  TGI: > 100 µM
HOP-62 NSCLC
  TGI: > 100 µM
DLD-1 colon
  TGI: > 100 µM
U251 CNS
  TGI: > 100 µM
SK-MEL-2 melanoma
  TGI: > 100 µM
HCT-116 colon
  TGI: > 100 µM
COLO 205 colon
  TGI: > 100 µM
SN12C renal
  TGI: > 100 µM
UO-31 renal
  TGI: > 100 µM
SW-620 colon
  TGI: > 100 µM
M19-MEL melanoma
  TGI: > 100 µM
HL-60(TB) leukemia
  TGI: > 100 µM
